Where two headings read alike, the source gives them in different places.
Key:
[1] = molecular target: T1, MDN1 (Homo sapiens, UniProt Q9NU22); assay: ATPase profile (ATP acyl phosphate probe); assay type: binding; settings: MDN1, SEQ ID NO: 121, ATP BS
T1 construct: to get the native cell lysate; endogenous in cells; host or cells: A375

[2] = molecular target: T2, PPCS (Homo sapiens, UniProt Q9HAB8); assay: ATPase profile (ATP acyl phosphate probe); assay type: binding
T2 construct: to get the native cell lysate; endogenous in cells; host or cells: A375 cell lysate
T2 sequence (Q9HAB8 whole entry): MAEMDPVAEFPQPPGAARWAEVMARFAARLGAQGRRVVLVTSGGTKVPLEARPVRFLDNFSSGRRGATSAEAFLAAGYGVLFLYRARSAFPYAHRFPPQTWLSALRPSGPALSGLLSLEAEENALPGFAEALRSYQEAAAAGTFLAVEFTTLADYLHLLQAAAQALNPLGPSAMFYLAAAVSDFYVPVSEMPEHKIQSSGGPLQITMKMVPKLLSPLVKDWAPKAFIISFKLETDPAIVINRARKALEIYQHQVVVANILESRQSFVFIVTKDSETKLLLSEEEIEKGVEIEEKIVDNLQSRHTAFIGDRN

[3] = system: PRKAG1, PRKAG2; assay: ATPase profile (ATP acyl phosphate probe); assay type: binding; settings: PRKAG1, PRKAG2, SEQ ID NO: 169, ATP BS
[4] = molecular target: T3, ALDH18A1 (Homo sapiens, UniProt P54886); assay: ATPase profile (ATP acyl phosphate probe); assay type: binding; settings: ALDH18A1, SEQ ID NO: 39, ATP BS
T3 construct: to get the native cell lysate; host or cells: A375 cell lysate

[5] = molecular target: T4, AHCY (Homo sapiens, UniProt P23526); assay: ATPase profile (ATP acyl phosphate probe); assay type: binding; settings: SEQ ID NO: 30, ATP BS
T4 construct: to get the native cell lysate; host or cells: A375 cell lysate

[6] = molecular target: T5, ACTR3 (Homo sapiens, UniProt P61158); assay: ATPase profile (ATP acyl phosphate probe); assay type: binding
T5 construct: to get the native cell lysate; host or cells: A375 cell lysate

[7] = molecular target: POLR3A (Homo sapiens, UniProt O14802); assay: ATPase profile (ATP acyl phosphate probe); assay type: binding; settings: SEQ ID NO: 164, ATP BS
[8] = molecular target: T6, NT5E (Homo sapiens, UniProt P21589); assay: ATPase profile (ATP acyl phosphate probe); assay type: binding; settings: SEQ ID NO: 140, ATP BS
T6 construct: to get the native cell lysate; endogenous in cells; host or cells: A375

[9] = molecular target: T7, NSF (Homo sapiens, UniProt P46459); assay: ATPase profile (ATP acyl phosphate probe); assay type: binding
T7 construct: to get the native cell lysate; endogenous in cells; host or cells: A375
T7 sequence (P46459 whole entry): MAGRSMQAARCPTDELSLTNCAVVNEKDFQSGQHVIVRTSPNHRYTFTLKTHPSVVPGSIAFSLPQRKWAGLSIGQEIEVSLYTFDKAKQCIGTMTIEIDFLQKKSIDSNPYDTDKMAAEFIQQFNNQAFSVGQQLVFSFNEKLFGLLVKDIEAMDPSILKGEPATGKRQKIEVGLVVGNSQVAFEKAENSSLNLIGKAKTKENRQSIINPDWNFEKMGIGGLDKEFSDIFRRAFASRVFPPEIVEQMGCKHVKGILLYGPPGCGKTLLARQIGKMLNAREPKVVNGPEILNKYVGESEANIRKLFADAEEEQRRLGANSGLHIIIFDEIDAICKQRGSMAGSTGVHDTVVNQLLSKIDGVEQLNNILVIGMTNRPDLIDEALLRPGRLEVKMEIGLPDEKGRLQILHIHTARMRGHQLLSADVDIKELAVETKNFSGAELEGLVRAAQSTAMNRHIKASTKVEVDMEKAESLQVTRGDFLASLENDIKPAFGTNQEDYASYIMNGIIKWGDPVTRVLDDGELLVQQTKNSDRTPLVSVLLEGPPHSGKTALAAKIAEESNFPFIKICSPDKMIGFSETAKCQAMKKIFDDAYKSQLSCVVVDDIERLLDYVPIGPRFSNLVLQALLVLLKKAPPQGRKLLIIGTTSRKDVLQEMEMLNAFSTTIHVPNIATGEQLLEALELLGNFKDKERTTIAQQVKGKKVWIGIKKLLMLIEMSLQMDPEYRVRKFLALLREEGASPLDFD

[10] = molecular target: T8, PKM, PKM2 (Homo sapiens, UniProt P14618); assay: ATPase profile (ATP acyl phosphate probe); assay type: binding; settings: PKM2, SEQ ID NO: 161, ATP BS
T8 construct: to get the native cell lysate; endogenous in cells; host or cells: A375 cell lysate

[11] = molecular target: T9, MCM6 (Homo sapiens, UniProt P33991+Q14566); assay: ATPase profile (ATP acyl phosphate probe); assay type: binding; settings: read-out: Inhibition (%) by 1 μM Z36-MP5
T9 construct: to get the native cell lysate; endogenous in cells; host or cells: A375

[12] = system: BAT1, DDX39; assay: ATPase profile (ATP acyl phosphate probe); assay type: binding; settings: BAT1, DDX39, SEQ ID NO: 50, ATP BS
[13] = molecular target: T10, BAT1 (Homo sapiens, UniProt Q13838); assay: ATPase profile (ATP acyl phosphate probe); assay type: binding; settings: BAT1, SEQ ID NO: 49, ATP BS
T10 construct: to get the native cell lysate; host or cells: A375 cell lysate

[14] = molecular target: T11, DERA (Homo sapiens, UniProt Q9Y315); assay: ATPase profile (ATP acyl phosphate probe); assay type: binding; settings: SEQ ID NO: 71, ATP BS
T11 construct: endogenous in cells; host or cells: A375 cell lysate

[15] = molecular target: T12, ABCF3 (Homo sapiens, UniProt Q9NUQ8); assay: ATPase profile (ATP acyl phosphate probe); assay type: binding; settings: ABCF3, SEQ ID NO: 19, ATP BS
T12 construct: to get the native cell lysate; host or cells: A375 cell lysate
T12 sequence (Q9NUQ8 whole entry): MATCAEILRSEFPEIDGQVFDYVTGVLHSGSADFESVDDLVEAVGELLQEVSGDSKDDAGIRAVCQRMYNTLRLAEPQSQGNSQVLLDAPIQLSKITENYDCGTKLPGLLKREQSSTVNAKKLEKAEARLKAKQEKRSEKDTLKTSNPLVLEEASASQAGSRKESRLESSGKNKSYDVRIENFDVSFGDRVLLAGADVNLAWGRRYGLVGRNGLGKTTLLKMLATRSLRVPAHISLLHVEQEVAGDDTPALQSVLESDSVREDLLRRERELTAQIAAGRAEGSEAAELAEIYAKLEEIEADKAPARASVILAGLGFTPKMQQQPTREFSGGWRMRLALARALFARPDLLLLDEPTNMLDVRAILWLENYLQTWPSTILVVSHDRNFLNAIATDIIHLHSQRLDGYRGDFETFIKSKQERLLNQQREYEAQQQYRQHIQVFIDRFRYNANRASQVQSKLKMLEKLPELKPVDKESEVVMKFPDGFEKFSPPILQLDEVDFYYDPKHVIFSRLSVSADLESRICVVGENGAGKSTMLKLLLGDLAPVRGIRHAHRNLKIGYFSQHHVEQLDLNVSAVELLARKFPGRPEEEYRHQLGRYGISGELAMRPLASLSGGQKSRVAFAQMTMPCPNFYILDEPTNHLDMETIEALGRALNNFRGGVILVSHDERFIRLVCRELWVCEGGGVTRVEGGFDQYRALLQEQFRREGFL

[16] = molecular target: T13, HSPA8 (Homo sapiens, UniProt P11142); assay: ATPase profile (ATP acyl phosphate probe); assay type: binding
T13 construct: to get the native cell lysate; endogenous in cells; host or cells: A375
T13 sequence (P11142 whole entry): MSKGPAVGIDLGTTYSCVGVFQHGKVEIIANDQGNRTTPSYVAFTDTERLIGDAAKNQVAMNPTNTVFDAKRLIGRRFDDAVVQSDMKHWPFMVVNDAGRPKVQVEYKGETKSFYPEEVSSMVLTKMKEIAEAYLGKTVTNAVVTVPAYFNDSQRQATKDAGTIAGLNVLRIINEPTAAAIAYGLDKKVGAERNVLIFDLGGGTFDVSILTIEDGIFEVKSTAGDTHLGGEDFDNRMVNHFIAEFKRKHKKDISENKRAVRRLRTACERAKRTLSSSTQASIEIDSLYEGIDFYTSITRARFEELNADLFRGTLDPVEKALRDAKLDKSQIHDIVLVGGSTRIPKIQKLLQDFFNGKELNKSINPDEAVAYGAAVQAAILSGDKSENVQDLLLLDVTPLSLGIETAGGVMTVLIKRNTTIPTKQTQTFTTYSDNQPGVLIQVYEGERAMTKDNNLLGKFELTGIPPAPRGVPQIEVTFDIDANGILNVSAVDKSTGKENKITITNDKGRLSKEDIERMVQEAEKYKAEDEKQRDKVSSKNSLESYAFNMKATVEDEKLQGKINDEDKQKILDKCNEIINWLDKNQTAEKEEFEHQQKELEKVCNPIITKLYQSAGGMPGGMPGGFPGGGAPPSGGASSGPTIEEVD

[17] = molecular target: T14, RUVBL1 (Homo sapiens, UniProt Q9Y265); assay: ATPase profile (ATP acyl phosphate probe); assay type: binding; settings: RUVBL1, SEQ ID NO: 188, ATP BS
T14 construct: to get the native cell lysate; endogenous in cells; host or cells: A375 cell lysate

[18] = molecular target: T15, ATG7 (Homo sapiens, UniProt O95352); assay: ATPase profile (ATP acyl phosphate probe); assay type: binding
T15 construct: to get the native cell lysate; host or cells: A375 cell lysate
T15 sequence (O95352 whole entry): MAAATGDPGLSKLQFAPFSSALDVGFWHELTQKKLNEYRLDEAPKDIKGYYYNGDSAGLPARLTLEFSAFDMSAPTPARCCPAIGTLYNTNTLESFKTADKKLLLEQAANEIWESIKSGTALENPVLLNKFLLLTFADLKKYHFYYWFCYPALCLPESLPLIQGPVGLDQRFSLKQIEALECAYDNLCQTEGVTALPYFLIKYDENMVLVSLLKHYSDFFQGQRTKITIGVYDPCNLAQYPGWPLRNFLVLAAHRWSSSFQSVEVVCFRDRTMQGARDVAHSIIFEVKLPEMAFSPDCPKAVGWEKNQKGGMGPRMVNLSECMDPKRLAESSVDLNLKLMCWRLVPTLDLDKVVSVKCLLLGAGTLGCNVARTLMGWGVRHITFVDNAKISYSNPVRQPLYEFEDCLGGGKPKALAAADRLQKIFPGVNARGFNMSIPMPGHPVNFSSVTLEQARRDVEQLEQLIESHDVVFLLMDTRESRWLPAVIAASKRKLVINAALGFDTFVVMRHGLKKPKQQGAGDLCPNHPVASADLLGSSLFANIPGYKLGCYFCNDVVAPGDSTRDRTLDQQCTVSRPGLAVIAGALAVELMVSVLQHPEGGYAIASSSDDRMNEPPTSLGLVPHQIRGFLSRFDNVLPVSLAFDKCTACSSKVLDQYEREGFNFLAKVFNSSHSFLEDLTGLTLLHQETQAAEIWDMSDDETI

[19] = molecular target: T16, DDX28 (Homo sapiens, UniProt Q9NUL7); assay: ATPase profile (ATP acyl phosphate probe); assay type: binding; settings: DDX28, SEQ ID NO: 68, ATP BS
T16 construct: endogenous in cells; host or cells: A375 cell lysate

[20] = molecular target: T17, CCT2 (Homo sapiens, UniProt P78371); assay: ATPase profile (ATP acyl phosphate probe); assay type: binding; settings: CCT2, SEQ ID NO: 51, ATP BS
T17 construct: to get the native cell lysate; host or cells: A375 cell lysate

[21] = system: B16F10 melanoma graft; assay: Syngeneic melanoma graft mouse model
Procedure: To test Z36-MP5 function in syngeneic mouse model, B16F10 cells (1.5×105) were mixed with BD matrigel (Matrix Growth Factor Reduced) (BD, 354230) in 100 μl PBS, and then mouse subcutaneous injection and tumor graft monitor were performed as described above. Except that vehicle [5% (w/v) Kolliphor HS 15 (Sigma)] in normal saline or formulated 30 mg/kg Z36-MP5 was administered with i.p. injection once a day starting at day 6, together with i.p. injection of control IgG antibodies (10 mg/kg) or anti-PD-1 (RMP1-14, BioXCell, 10 mg/kg) on day 6, 9, 12, 15 and 18. The mice were euthanized after indicated days or when the allowable endpoint size (1 cm^3) was reached.
Tumors were minced with scissors, and then digested with the digestion buffer (RPMI 1640 medium, 5% FBS, 1% penicillin-streptomycin, 25 mM HEPES, and 300 U collagenase (Sigma C0130)) on a shaker at 37° C. for 2 hours. Single cells were prepared through a 70 m cell strainer. Erythrocytes were removed by incubation in red blood cell lysis buffer (R7757, Sigma) at room temperature for 5 min. The cells were prepared in PBS (with concentration of ˜2×10^7) for studies.
The single-cell suspension were fixed with 2% paraformaldehyde solution (J19943K2, Thermo Scientific). And then the cells were stained with the follow antibodies: anti-mouse CD45 APC (104, BD pharmingen, 561875), anti-mouse CD3e PE (145-2C11, BD pharmingen, 553063), anti-mouse CD4 FITC (RM4-5, BD pharmingen, 553046), anti-mouse CD4 PE/Cy7 (GK1.5, BioLegend, 100421), anti-mouse CD8 FITC (53-6.7, BD pharmingen, 553031), anti-mouse CD8a APC/Cy7 (53-6.7, BioLegend 100713), anti-mouse IFN-γ PE (XMG1.2, eBioscience, 12731181), anti-mouse CD69 PE (H1.2F3, Biolegend, 104508), anti-mouse CD25 Alexa Fluor 488 (PC61.5, eBioscience, 53025182), anti-mouse CD107a-V450 (1D4B, BD, 560648), anti-human/mouse granzyme B FITC (GB 11, BioLegend, 515403). The regulatory T cells in TILs were stained with the Mouse Regulatory T Cell Staining kit #1 (88-8111, ThermoFisher Scienctific), with antibodies of anti-mouse CD4 FITC (RM4-5), anti-mouse CD25 APC (PC61.5) anti-mouse Foxp3 PE (FJK-16s). BD LSRII was used for data acquisition and FlowJo was used for data analysis.

[22] = molecular target: T18, TRAP1 (Homo sapiens, UniProt Q12931); assay: ATPase profile (ATP acyl phosphate probe); assay type: binding
T18 construct: to get the native cell lysate; endogenous in cells; host or cells: A375 cell lysate
T18 sequence (Q12931 60-704): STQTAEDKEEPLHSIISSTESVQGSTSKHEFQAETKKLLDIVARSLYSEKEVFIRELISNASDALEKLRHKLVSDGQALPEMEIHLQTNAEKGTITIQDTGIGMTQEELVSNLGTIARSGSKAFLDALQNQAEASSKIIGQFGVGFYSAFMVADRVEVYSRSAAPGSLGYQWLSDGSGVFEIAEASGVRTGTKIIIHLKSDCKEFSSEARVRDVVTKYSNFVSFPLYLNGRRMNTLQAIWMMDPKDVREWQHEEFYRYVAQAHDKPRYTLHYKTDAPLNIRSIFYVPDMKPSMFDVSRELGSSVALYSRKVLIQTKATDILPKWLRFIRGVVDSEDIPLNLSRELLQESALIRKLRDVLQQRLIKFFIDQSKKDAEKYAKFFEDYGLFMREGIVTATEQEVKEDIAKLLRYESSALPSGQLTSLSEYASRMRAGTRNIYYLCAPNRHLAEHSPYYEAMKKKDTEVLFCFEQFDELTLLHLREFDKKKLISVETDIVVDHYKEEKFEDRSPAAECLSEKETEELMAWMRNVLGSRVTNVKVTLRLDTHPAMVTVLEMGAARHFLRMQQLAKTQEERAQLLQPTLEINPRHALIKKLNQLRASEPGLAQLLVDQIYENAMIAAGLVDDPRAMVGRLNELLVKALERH

[23] = molecular target: T19, ABCF2 (Homo sapiens, UniProt Q9UG63); assay: ATPase profile (ATP acyl phosphate probe); assay type: binding
T19 construct: to get the native cell lysate; host or cells: A375 cell lysate
T19 sequence (Q9UG63 whole entry): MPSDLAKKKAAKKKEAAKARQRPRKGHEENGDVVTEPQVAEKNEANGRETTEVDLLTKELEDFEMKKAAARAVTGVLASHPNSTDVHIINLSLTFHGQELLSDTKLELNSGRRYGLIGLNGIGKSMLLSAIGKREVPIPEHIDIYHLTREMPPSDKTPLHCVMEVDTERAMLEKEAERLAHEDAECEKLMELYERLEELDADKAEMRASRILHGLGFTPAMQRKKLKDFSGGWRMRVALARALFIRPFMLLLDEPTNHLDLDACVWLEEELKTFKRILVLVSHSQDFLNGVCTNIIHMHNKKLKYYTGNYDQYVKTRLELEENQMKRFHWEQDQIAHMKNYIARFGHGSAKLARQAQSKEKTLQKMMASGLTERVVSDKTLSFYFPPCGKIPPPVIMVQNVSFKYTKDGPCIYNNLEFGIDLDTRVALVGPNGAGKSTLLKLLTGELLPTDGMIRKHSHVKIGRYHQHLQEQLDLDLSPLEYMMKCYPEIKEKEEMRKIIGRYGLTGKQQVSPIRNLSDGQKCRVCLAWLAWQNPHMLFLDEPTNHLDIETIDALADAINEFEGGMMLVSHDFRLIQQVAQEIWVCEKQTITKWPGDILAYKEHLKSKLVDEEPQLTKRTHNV

[24] = molecular target: T20, LIG1 (Homo sapiens, UniProt P18858); assay: ATPase profile (ATP acyl phosphate probe); assay type: binding; settings: LIG1, SEQ ID NO: 114, ATP BS
T20 construct: to get the native cell lysate; endogenous in cells; host or cells: A375

[25] = molecular target: T21, XRCC5 (Homo sapiens, UniProt P13010); assay: ATPase profile (ATP acyl phosphate probe); assay type: binding; settings: XRCC5, SEQ ID NO: 231, ATP BS
T21 construct: to get the native cell lysate; endogenous in cells; host or cells: A375 cell lysate

[26] = molecular target: SARS (Homo sapiens, UniProt P49591); assay type: binding; settings: SEQ ID NO: 190, ATP BS
[27] = molecular target: T22, ABCB10 (Homo sapiens, UniProt Q9NRK6); assay: ATPase profile (ATP acyl phosphate probe); assay type: binding; settings: ABCB10, SEQ ID NO: 2, ATP BS
T22 construct: to get the native cell lysate; host or cells: A375 cell lysate
T22 sequence (Q9NRK6 106-738): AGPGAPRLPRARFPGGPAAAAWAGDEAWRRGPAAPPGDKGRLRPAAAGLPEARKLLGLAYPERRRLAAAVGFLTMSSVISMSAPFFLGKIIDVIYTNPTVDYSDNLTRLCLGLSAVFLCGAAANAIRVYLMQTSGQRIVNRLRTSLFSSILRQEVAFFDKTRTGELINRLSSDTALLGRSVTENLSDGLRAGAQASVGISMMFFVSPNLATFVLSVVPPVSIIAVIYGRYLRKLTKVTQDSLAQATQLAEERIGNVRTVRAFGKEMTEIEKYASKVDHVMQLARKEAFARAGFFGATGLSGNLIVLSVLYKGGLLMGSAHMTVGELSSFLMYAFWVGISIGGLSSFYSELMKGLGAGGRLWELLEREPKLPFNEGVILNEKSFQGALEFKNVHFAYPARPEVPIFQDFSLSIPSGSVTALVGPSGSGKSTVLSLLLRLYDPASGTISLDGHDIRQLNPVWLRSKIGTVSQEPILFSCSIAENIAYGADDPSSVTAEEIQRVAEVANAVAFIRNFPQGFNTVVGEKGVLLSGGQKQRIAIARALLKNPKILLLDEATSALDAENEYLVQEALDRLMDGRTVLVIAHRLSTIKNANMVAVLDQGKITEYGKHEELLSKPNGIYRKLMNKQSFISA

[28] = molecular target: PSMC4 (Homo sapiens, UniProt P43686); assay: ATPase profile (ATP acyl phosphate probe); assay type: binding; settings: PSMC4, SEQ ID NO: 176, ATP BS
[29] = Z36-MP5 30 mg/kg combined with anti-PD-1 10 mg/kg, B16F10 graft

SMILES: Cn1c(=O)[nH]c2ccc(-c3cccc(C(=O)NC4CCn5ccnc5C4)c3)cc21 (stereo not shown) [Z36-MP5, 3-(3-methyl-2-oxo-2,3-dihydro-1H-benzo[d]imidazol-5-yl)-N-(5,6,7,8-tetrahydroimidazo[1,2-a]pyridin-7-yl)benzamide]
- Inhibition (%) by 1 μM Z36-MP5 [1]: 3.28%
- Inhibition (%) by 1 μM Z36-MP5 ([2]; SEQ ID NO: 165, ATP BS): −7.44%
- Inhibition (%) by 1 μM Z36-MP5 ([2]; SEQ ID NO: 166, ATP BS): −9.61%
- Inhibition (%) by 1 μM Z36-MP5 [3]: −7.97%
- Inhibition (%) by 1 μM Z36-MP5 [4]: −6.95%
- Inhibition (%) by 1 μM Z36-MP5 [5]: −10.85%
- Inhibition (%) by 1 μM Z36-MP5 ([6]; ACTR3, SEQ ID NO: 27, ATP BS): 5.36%
- Inhibition (%) by 1 μM Z36-MP5 ([6]; ACTR3, SEQ ID NO: 28, ATP BS): −0.28%
- Inhibition (%) by 1 μM Z36-MP5 [7]: 4.31%
- Inhibition (%) by 1 μM Z36-MP5 [8]: −9.95%
- Inhibition (%) by 1 μM Z36-MP5 ([9]; SEQ ID NO: 138, ATP BS): 6.03%
- Inhibition (%) by 1 μM Z36-MP5 ([9]; SEQ ID NO: 139, ATP BS): −6.18%
- Inhibition (%) by 1 μM Z36-MP5 [10]: 28.24%
- inhibition at 1 µM ([11]; MCM6, SEQ ID NO: 119, ATP BS): -5.23%
- inhibition at 1 µM ([11]; MCM6, SEQ ID NO: 120, ATP BS): -2.54%
- Inhibition (%) by 1 μM Z36-MP5 [12]: −10.93%
- Inhibition (%) by 1 μM Z36-MP5 [13]: −9.58%
- Inhibition (%) by 1 μM Z36-MP5 [14]: 6.01%
- Inhibition (%) by 1 μM Z36-MP5 [15]: 5.45%
- Inhibition (%) by 1 μM Z36-MP5 ([16]; HSPA8, SEQ ID NO: 106, ATP BS): 3.27%
- Inhibition (%) by 1 μM Z36-MP5 ([16]; HSPA8, SEQ ID NO: 107, ATP BS): 4.45%
- Inhibition (%) by 1 μM Z36-MP5 [17]: −15.57%
- Inhibition (%) by 1 μM Z36-MP5 ([18]; ATG7, SEQ ID NO: 45, ATP BS): −0.18%
- Inhibition (%) by 1 μM Z36-MP5 ([18]; ATG7, SEQ ID NO: 46, ATP BS): −6.20%
- Inhibition (%) by 1 μM Z36-MP5 [19]: −5.30%
- Inhibition (%) by 1 μM Z36-MP5 [20]: −6.50%
- mouse survival [21, 29]: extended mouse survival
- tumor growth [21, 29]: substantial inhibition
- GZMB expression and activation markers CD69, IFN-γ, CD25 and CD107 in tumor-infiltrating CD8+ T cells ([21]; Z36-MP5 alone): upregulation
- CD8+ T cell TILs ([21]; Z36-MP5 alone, graft melanomas): moderate increase
- GZMB expression and activation markers CD69, IFN-γ, CD25 and CD107 in tumor-infiltrating CD8+ T cells ([21]; Z36-MP5 combined with anti-PD-1): augmented
- CD8+ T cell TILs ([21]; Z36-MP5 combined with anti-PD-1, graft melanomas): augmented
- population of CD4+ T cell and Treg cells ([21]; individual or combinational treatments, graft melanomas): not changed significantly
- tumor growth or mouse survival ([21]; treatment alone, B16F10 graft): did not impact
- Inhibition (%) by 1 μM Z36-MP5 ([22]; TRAP1, SEQ ID NO: 209, ATP BS): −10.78%
- Inhibition (%) by 1 μM Z36-MP5 ([22]; TRAP1, SEQ ID NO: 210, ATP BS): −11.57%
- Inhibition (%) by 1 μM Z36-MP5 ([23]; ABCF2, SEQ ID NO: 17, ATP BS): −7.92%
- Inhibition (%) by 1 μM Z36-MP5 ([23]; ABCF2, SEQ ID NO: 18, ATP BS): 26.88%
- Inhibition (%) by 1 μM Z36-MP5 [24]: −7.76%
- Inhibition (%) by 1 μM Z36-MP5 [25]: 2.24%
- Inhibition (%) by 1 μM Z36-MP5 [26]: 3.57%
- Inhibition (%) by 1 μM Z36-MP5 [27]: −6.14%
- Inhibition (%) by 1 μM Z36-MP5 [28]: 13.36%

From patent publication US12268674B2, “Mi-2β inhibitor as an immunotherapy agent” (BioVentures, LLC, priority 2021, dated 2025)
